In US8609661B2, “Pyrimido-pyrrolo-quinoxalinedione inhibitors of cystic fibrosis transmembrane conductance regulator protein and uses therefor” (The Regents of the University of California, priority 2009, dated 2013):
Like-named read-outs stand apart in the source and are kept apart here.

Biological target: T1, human wildtype CFTR (Homo sapiens, UniProt P13569)
T1 construct: expressed in transfected cells; host or cells: Fischer rat thyroid (FRT) cells
Test: Fluorescence platereader assay of CFTR-mediated iodide influx (YFP quenching) in FRT cells
Format: cell-based
Details: for inhibition at 5 µM / inhibition at 25 µM: FRT; for IC50: apparent IC50 from concentration-inhibition data, fluorescence platereader assay
Protocol: A. Cell lines and compounds—Fischer rat thyroid (FRT) cells co-expressing human wildtype CFTR and the halide indicator YFP-H148Q/1152L were generated as described (see, e.g., Ma et al., J. Clin. Invest. 110:1651-1658 (2002)). Cells were plated in 96-well black-walled microplates (Corning Costar) at a density of 20,000 cells per well in Coon's modified F12 medium supplemented with 5% fetal calf serum, 2 mM L-glutamine, 100 U/mL penicillin, and 100 μg/ml streptomycin. Assays were performed at 48 h after plating the cells when the cells were just confluent. For some experiments, measurements were made using T84 human intestinal epithelial cells and for other experiments, measurements were obtained using primary cultures of human bronchial epithelial cells, which were obtained and grown essentially as previously described (see, e.g., 3 and 27).
B. Compound Screening—Assays were performed using an automated screening platform (Beckman) equipped with FLUOStar fluorescence platereaders (BMG Lab Technologies, Offenburg, Germany) as described (see Ma et al., supra). Each well of a 96-well plate containing FRT cells was washed 3 times in PBS (300 μL/wash), leaving 50 μL PBS. […] After 15 min, 96-well plates were transferred to a plate reader for fluorescence assay. Each well was assayed individually for CFTR-mediated iodide influx by recording fluorescence continuously (200 ms per point) for 2 s (baseline) and then for 10 s after rapid addition of 160 μL of isosmolar PBS in which 137 mM chloride was replaced by iodide. The initial rate of iodide influx was computed from fluorescence data by non-linear regression.
Collections of synthetic and natural compounds were screened according to the screening procedures described in Example 2. A cell-based fluorescence assay was used in which CFTR inhibitors were identified by reduced iodide influx in FRT cells co-expressing human CFTR and a YFP halide sensor. CFTR was maximally activated by a mixture of agonists having different activating mechanisms. Inhibition of iodide influx was observed as reduced YFP fluorescence quenching in response to rapid iodide addition to each well of 96-well plates. […]

[1] = read-out: % inhibition at 25/5 μM (5 μM value), Table 1, 5 μM compound
[2] = Table 2, screening, 5 μM, read-out: % Inhibition at 5 μM
[3] = Table 2, screening, 25 μM, read-out: % Inhibition at 25 μM
[4] = read-out: % inhibition at 25/5 μM (25 μM value), Table 1, 25 μM compound

T1 sequence (P13569 whole entry): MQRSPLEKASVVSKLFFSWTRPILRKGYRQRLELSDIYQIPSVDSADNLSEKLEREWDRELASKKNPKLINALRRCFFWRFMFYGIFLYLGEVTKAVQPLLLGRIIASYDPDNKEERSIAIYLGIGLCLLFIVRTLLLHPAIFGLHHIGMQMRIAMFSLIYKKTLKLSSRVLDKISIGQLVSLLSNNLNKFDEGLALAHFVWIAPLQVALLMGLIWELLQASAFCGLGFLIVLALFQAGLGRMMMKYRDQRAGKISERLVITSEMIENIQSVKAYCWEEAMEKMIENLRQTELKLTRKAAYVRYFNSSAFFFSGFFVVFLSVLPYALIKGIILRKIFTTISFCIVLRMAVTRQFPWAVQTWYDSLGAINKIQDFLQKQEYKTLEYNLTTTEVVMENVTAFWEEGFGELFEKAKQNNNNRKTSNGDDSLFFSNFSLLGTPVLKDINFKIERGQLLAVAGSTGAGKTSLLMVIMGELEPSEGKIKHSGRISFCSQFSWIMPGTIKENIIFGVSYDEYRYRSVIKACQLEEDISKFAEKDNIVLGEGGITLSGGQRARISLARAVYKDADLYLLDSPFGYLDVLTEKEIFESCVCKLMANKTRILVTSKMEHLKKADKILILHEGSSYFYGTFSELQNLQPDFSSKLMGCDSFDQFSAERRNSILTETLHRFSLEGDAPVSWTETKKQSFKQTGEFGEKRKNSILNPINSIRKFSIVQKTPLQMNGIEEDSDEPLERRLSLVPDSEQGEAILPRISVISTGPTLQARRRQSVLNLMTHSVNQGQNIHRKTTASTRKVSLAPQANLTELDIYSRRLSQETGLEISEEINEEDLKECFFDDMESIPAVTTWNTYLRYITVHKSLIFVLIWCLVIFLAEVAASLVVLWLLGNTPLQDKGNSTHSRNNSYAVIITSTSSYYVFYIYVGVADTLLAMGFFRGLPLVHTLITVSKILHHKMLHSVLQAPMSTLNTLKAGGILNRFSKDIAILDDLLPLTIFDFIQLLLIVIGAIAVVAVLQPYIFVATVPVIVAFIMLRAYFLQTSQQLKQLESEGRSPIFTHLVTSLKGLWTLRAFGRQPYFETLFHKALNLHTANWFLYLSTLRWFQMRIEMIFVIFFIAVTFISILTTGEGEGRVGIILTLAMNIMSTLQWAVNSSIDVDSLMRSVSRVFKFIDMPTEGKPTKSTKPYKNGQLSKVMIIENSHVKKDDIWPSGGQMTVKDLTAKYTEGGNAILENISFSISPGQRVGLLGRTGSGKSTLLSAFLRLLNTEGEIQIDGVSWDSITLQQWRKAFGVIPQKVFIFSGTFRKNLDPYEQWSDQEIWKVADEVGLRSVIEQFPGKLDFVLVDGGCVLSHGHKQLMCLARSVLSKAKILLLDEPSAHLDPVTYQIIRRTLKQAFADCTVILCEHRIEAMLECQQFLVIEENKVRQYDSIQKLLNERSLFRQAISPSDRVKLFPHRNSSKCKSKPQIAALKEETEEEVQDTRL

Row | Compound | inhibition at 5 µM [1] [%] | inhibition at 5 µM [2] [%] | inhibition at 25 µM [3] [%] | IC50 [nM] | inhibition at 25 µM [4] [%]
1 | COc1cccc(C2Nc3ccccc3-n3c(-c4cccc(C)c4)c4c(=O)n(C)c(=O)n(C)c4c32)c1 (stereo not shown) [PPQ-210, 7,9-Dimethyl-11-(3-methylphenyl)-6-(3-methoxyphenyl)-5,6-dihydro-pyrimido[4′,5′-3,4]pyrrolo[1,2-a]quinoxaline-8,10-(7H,9H)-dione] | 73 | 73 | > 95 | 1700 | 
2 | COc1cccc(C2Nc3ccccc3-n3c(-c4ccccc4F)c4c(=O)n(C)c(=O)n(C)c4c32)c1 (stereo not shown) [PPQ-211, 7,9-Dimethyl-11-(2-fluorophenyl)-6-(3-methoxyphenyl)-5,6-dihydro-pyrimido[4′,5′-3,4]pyrrolo[1,2-a]quinoxaline-8,10-(7H,9H)-dione] | 62 | 62 | > 95 | 2000 | 
3 | Cc1cccc(-c2c3c(=O)n(C)c(=O)n(C)c3c3n2-c2ccccc2NC3c2cccc([N+](=O)[O-])c2F)c1 (stereo not shown) [PPQ-212, 7,9-Dimethyl-11-(3-methylphenyl)-6-(2-fluoro-3-nitrophenyl)-5,6-dihydro-pyrimido[4′,5′-3,4]pyrrolo[1,2-a]quinoxaline-8,10-(7H,9H)-dione] |  |  |  | 2000 | 
4 | Cc1cccc(-c2c3c(=O)n(C)c(=O)n(C)c3c3n2-c2ccccc2NC3c2ccccc2F)c1 (stereo not shown) [PPQ-215, 7,9-Dimethyl-11-(3-methylphenyl)-6-(2-fluorophenyl)-5,6-dihydro-pyrimido[4′,5′-3,4]pyrrolo[1,2-a]quinoxaline-8,10-(7H,9H)-dione] | 67 | 67 | 80 | 2500 | 80
5 | Cc1cccc(-c2c3c(=O)n(C)c(=O)n(C)c3c3n2-c2ccccc2NC3c2cccc(F)c2)c1 (stereo not shown) [PPQ-219, 7,9-Dimethyl-11-(3-methylphenyl)-6-(3-fluorophenyl)-5,6-dihydro-pyrimido[4′,5′-3,4]pyrrolo[1,2-a]quinoxaline-8,10-(7H,9H)-dione] | 53 | 53 | 93 | 8000 | 93
6 | Cc1ccc(-c2c3c(=O)n(C)c(=O)n(C)c3c3n2-c2ccccc2NC3c2ccc(C)cc2O)cc1 (stereo not shown) [PPQ-220, 7,9-Dimethyl-11-(4-methylphenyl)-6-(2-hydroxy-4-methylphenyl)-5,6-dihydro-pyrimido[4′,5′-3,4]pyrrolo[1,2-a]quinoxaline-8,10-(7H,9H)-dione] |  | < 10 | > 95 |  | 
7 | Cc1cc2c(cc1C)-n1c(-c3ccccc3)c3c(=O)n(C)c(=O)n(C)c3c1C(c1cccc(O)c1)N2 (stereo not shown) [PPQ-223, 2,3,7,9-Tetramethyl-11-phenyl-6-(3-hydroxyphenyl)-5,6-dihydro-pyrimido[4′,5′-3,4]pyrrolo[1,2-a]quinoxaline-8,10-(7H,9H)-dione] |  | 36 | 92 |  | 
8 | Cc1cc2c(cc1C)-n1c(-c3ccccc3)c3c(=O)n(C)c(=O)n(C)c3c1C(c1ccc(O)c(O)c1)N2 (stereo not shown) [PPQ-224, 2,3,7,9-Tetramethyl-11-phenyl-6-(3,4-dihydroxyphenyl)-5,6-dihydro-pyrimido[4′,5′-3,4]pyrrolo[1,2-a]quinoxaline-8,10-(7H,9H)-dione] |  | 24 | 82 |  | 
9 | Cc1cccc(-c2c3c(=O)n(C)c(=O)n(C)c3c3n2-c2ccccc2NC3c2cccc([N+](=O)[O-])c2)c1 (stereo not shown) [PPQ-225, 7,9-Dimethyl-11-(3-methylphenyl)-6-(3-nitrophenyl)-5,6-dihydro-pyrimido[4′,5′-3,4]pyrrolo[1,2-a]quinoxaline-8,10-(7H,9H)-dione] |  | 61 | 94 |  | 
10 | Cc1cc2c(cc1C)-n1c(-c3ccccc3)c3c(=O)n(C)c(=O)n(C)c3c1C(c1ccccc1)N2 (stereo not shown) [PPQ-226, 2,3,7,9-Tetramethyl-11-phenyl-6-phenyl-5,6-dihydro-pyrimido[4′,5′-3,4]pyrrolo[1,2-a]quinoxaline-8,10-(7H,9H)-dione] |  | 61 | 92 |  | 

More lines, now with the values ahead:

Row | inhibition at 5 µM [1] [%] | inhibition at 5 µM [2] [%] | inhibition at 25 µM [3] [%] | IC50 [nM] | inhibition at 25 µM [4] [%] | Compound
11 | 64 | 64 | 96 | 2000 | 96 | Cc1ccccc1-c1c2c(=O)n(C)c(=O)n(C)c2c2n1-c1ccccc1NC2c1cccc([N+](=O)[O-])c1 (stereo not shown) [PPQ-213, 7,9-Dimethyl-11-(2-methylphenyl)-6-(3-nitrophenyl)-5,6-dihydro-pyrimido[4′,5′-3,4]pyrrolo[1,2-a]quinoxaline-8,10-(7H,9H)-dione]
12 | 70 | 70 | > 95 | 2500 |  | Cn1c(=O)c2c(-c3ccccc3F)n3c(c2n(C)c1=O)C(c1cccc(Cl)c1)Nc1ccccc1-3 (stereo not shown) [PPQ-214, 7,9-Dimethyl-11-(2-fluorophenyl)-6-(3-chlorophenyl)-5,6-dihydro-pyrimido[4′,5′-3,4]pyrrolo[1,2-a]quinoxaline-8,10-(7H,9H)-dione]
13 | 62 | 62 | > 95 | 3000 |  | COc1cccc(C2Nc3ccccc3-n3c(-c4ccccc4C)c4c(=O)n(C)c(=O)n(C)c4c32)c1 (stereo not shown) [PPQ-216, 7,9-Dimethyl-11-(2-methylphenyl)-6-(3-methoxyphenyl)-5,6-dihydro-pyrimido[4′,5′-3,4]pyrrolo[1,2-a]quinoxaline-8,10-(7H,9H)-dione]
14 | 46 | 46 | > 95 | 3000 |  | Cc1cccc(C2Nc3ccccc3-n3c(-c4ccccc4C)c4c(=O)n(C)c(=O)n(C)c4c32)c1 (stereo not shown) [PPQ-217, 7,9-Dimethyl-11-(2-methylphenyl)-6-(3-methylphenyl)-5,6-dihydro-pyrimido[4′,5′-3,4]pyrrolo[1,2-a]quinoxaline-8,10-(7H,9H)-dione]
15 |  | 41 | 94 | 5000 |  | Cc1ccccc1-c1c2c(=O)n(C)c(=O)n(C)c2c2n1-c1ccccc1NC2c1ccccc1 (stereo not shown) [PPQ-218, 7,9-Dimethyl-11-(2-methylphenyl)-6-phenyl-5,6-dihydro-pyrimido[4′,5′-3,4]pyrrolo[1,2-a]quinoxaline-8,10-(7H,9H)-dione]
16 |  | 50 | > 95 |  |  | Cc1ccccc1-c1c2c(=O)n(C)c(=O)n(C)c2c2n1-c1ccccc1NC2c1cccc(F)c1F (stereo not shown) [PPQ-221, 7,9-Dimethyl-11-(2-methylphenyl)-6-(2,3-difluorophenyl)-5,6-dihydro-pyrimido[4′,5′-3,4]pyrrolo[1,2-a]quinoxaline-8,10-(7H,9H)-dione]
17 |  | 32 | 84 |  |  | Cc1ccccc1-c1c2c(=O)n(C)c(=O)n(C)c2c2n1-c1ccccc1NC2c1ccc(O)cc1 (stereo not shown) [PPQ-222, 7,9-Dimethyl-11-(2-methylphenyl)-6-(4-hydroxyphenyl)-5,6-dihydro-pyrimido[4′,5′-3,4]pyrrolo[1,2-a]quinoxaline-8,10-(7H,9H)-dione]
18 |  | 10 | 78 |  |  | COc1cc(C2Nc3ccccc3-n3c(-c4ccccc4C)c4c(=O)n(C)c(=O)n(C)c4c32)ccc1O (stereo not shown) [PPQ-227, 7,9-Dimethyl-11-(2-methylphenyl)-6-(3-methoxy-4-hydroxyphenyl)-5,6-dihydro-pyrimido[4′,5′-3,4]pyrrolo[1,2-a]quinoxaline-8,10-(7H,9H)-dione]
19 |  | 30 | 83 |  |  | Cc1cccc(-c2c3c(=O)n(C)c(=O)n(C)c3c3n2-c2ccccc2NC3c2cccc(O)c2)c1 (stereo not shown) [PPQ-228, 7,9-Dimethyl-11-(3-methylphenyl)-6-(3-hydroxyphenyl)-5,6-dihydro-pyrimido[4′,5′-3,4]pyrrolo[1,2-a]quinoxaline-8,10-(7H,9H)-dione]
20 |  | 57 | 90 |  |  | Cc1ccccc1-c1c2c(=O)n(C)c(=O)n(C)c2c2n1-c1ccccc1NC2c1cccc(F)c1 (stereo not shown) [PPQ-229, 7,9-Dimethyl-11-(2-methylphenyl)-6-(3-fluorophenyl)-5,6-dihydro-pyrimido[4′,5′-3,4]pyrrolo[1,2-a]quinoxaline-8,10-(7H,9H)-dione]
21 |  | 51 | 87 |  |  | Cn1c(=O)c2c(-c3ccccc3F)n3c(c2n(C)c1=O)C(c1cccc(F)c1)Nc1ccccc1-3 (stereo not shown) [PPQ-230, 7,9-Dimethyl-11-(2-fluorophenyl)-6-(3-fluorophenyl)-5,6-dihydro-pyrimido[4′,5′-3,4]pyrrolo[1,2-a]quinoxaline-8,10-(7H,9H)-dione]
